Measured values as given in the supplement of paper PMC10920090.

Columns and labels:
[1] = system: MDA-MB-231; experiment: drug sensitivity score (DSS), cytotoxicity CellTox Green; higher = more cytotoxic; extreme values may be limits of the assay; details: 72 h
[2] = system: MDA-MB-231; experiment: drug sensitivity score (DSS), cell viability CellTiter-Glo; higher = more sensitive; extreme values may be limits of the assay; details: 72 h
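Throughout, for drug sensitivity score (DSS), cytotoxicity CellTox Green: DSS summarises each dose–response curve by combining IC50, EC50, maximal inhibition and efficacy across drug concentrations.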

Q: What does the source list for `NC(=O)c1ccc(I)c([N+](=O)[O-])c1` [Iniparib]?
A: drug sensitivity score ([1]; shRNA: shPPFIA1_1): 0 DSS; drug sensitivity score ([1]; shRNA: shScramble): 0 DSS; drug sensitivity score ([2]; shRNA: shPPFIA1_1): 0 DSS; drug sensitivity score ([2]; shRNA: shScramble): 0 DSS

Q: `Cc1cnc(Nc2ccc(OCCN3CCCC3)cc2)nc1Nc1cccc(S(=O)(=O)NC(C)(C)C)c1` [Fedratinib] was tested. Which drug sensitivity score ([1]; shRNA: shPPFIA1_1) did it give?
A: 2.2 DSS

Q: And the drug sensitivity score ([1]; shRNA: shScramble)?
A: 5.7 DSS

Q: What about the drug sensitivity score ([2]; shRNA: shPPFIA1_1) of the same molecule?
A: 1.9 DSS

Q: And the drug sensitivity score ([2]; shRNA: shScramble)?
A: 9.2 DSS

Q: How did the drug sensitivity score ([1]; shRNA: shPPFIA1_1) turn out when `N#CC[C@H](C1CCCC1)n1cc(-c2ncnc3[nH]ccc23)cn1` [Ruxolitinib] was run?
A: 0 DSS

Q: What about the drug sensitivity score ([1]; shRNA: shScramble) of the same molecule?
A: 0 DSS

Q: What about the drug sensitivity score ([2]; shRNA: shPPFIA1_1) of the same molecule?
A: 0.6 DSS

Q: What about the drug sensitivity score ([2]; shRNA: shScramble) of the same molecule?
A: 2.1 DSS

Q: Which results are given for `COc1cc(C(=O)O)ccc1NC(=O)[C@@H]1N[C@@H](CC(C)(C)C)[C@](C#N)(c2ccc(Cl)cc2F)[C@H]1c1cccc(Cl)c1F` [Idasanutlin]?
A: drug sensitivity score ([1]; shRNA: shPPFIA1_1): 2.6 DSS; drug sensitivity score ([1]; shRNA: shScramble): 0.6 DSS; drug sensitivity score ([2]; shRNA: shPPFIA1_1): 0 DSS; drug sensitivity score ([2]; shRNA: shScramble): 0 DSS

Q: Which drug sensitivity score ([1]; shRNA: shPPFIA1_1) does the source give for `COc1cc2c(Nc3ccc(Cl)c(Cl)c3F)ncnc2cc1OC[C@@H]1C[C@@H]2CN(C)C[C@@H]2C1` [XL-647] here?
A: 0 DSS

Q: And the drug sensitivity score ([1]; shRNA: shScramble)?
A: 0 DSS

Q: And the drug sensitivity score ([2]; shRNA: shPPFIA1_1)?
A: 0 DSS

Q: And the drug sensitivity score ([2]; shRNA: shScramble)?
A: 0 DSS

Q: Which drug sensitivity score ([1]; shRNA: shPPFIA1_1) does the source give for `CC(C)n1nc(-c2ccc3oc(N)nc3c2)c2c(N)ncnc21` [MLN-0128] here?
A: 0 DSS

Q: What about the drug sensitivity score ([1]; shRNA: shScramble) of the same molecule?
A: 0 DSS

Q: And the drug sensitivity score ([2]; shRNA: shPPFIA1_1)?
A: 0.2 DSS

Q: And the drug sensitivity score ([2]; shRNA: shScramble)?
A: 5 DSS

Q: With `CCCCC/C=C/C=C1/C(=O)C=C[C@@H]1C/C=C\CCCC(=O)O` [15D-PGJ2] as the molecule, how does the drug sensitivity score ([1]; shRNA: shPPFIA1_1) read?
A: 0 DSS

Q: What about the drug sensitivity score ([1]; shRNA: shScramble) of the same molecule?
A: 0 DSS

Q: And the drug sensitivity score ([2]; shRNA: shPPFIA1_1)?
A: 0 DSS

Q: And the drug sensitivity score ([2]; shRNA: shScramble)?
A: 0 DSS

Q: Which results are given for `Cn1c(=O)c(F)c(Nc2ccc(I)cc2F)c2c(=O)n(C[C@@H](O)CO)cnc21` [TAK-733]?
A: drug sensitivity score ([1]; shRNA: shPPFIA1_1): 6.9 DSS; drug sensitivity score ([1]; shRNA: shScramble): 8.8 DSS; drug sensitivity score ([2]; shRNA: shPPFIA1_1): 4.8 DSS; drug sensitivity score ([2]; shRNA: shScramble): 12.8 DSS

Q: How did the drug sensitivity score ([1]; shRNA: shPPFIA1_1) turn out when `CCS(=O)(=O)N1CC(CC#N)(n2cc(-c3ncnc4[nH]ccc34)cn2)C1` [Baricitinib] was run?
A: 0 DSS

Q: And the drug sensitivity score ([1]; shRNA: shScramble)?
A: 0 DSS

Q: And the drug sensitivity score ([2]; shRNA: shPPFIA1_1)?
A: 0.9 DSS

Q: And the drug sensitivity score ([2]; shRNA: shScramble)?
A: 0.9 DSS

Q: For `O=[N+]([O-])c1ccc2c(c1)S(=O)(=O)C=C2` [Stattic], which drug sensitivity score ([1]; shRNA: shPPFIA1_1) is on record?
A: 4.4 DSS

Q: And the drug sensitivity score ([1]; shRNA: shScramble)?
A: 7.2 DSS

Q: And the drug sensitivity score ([2]; shRNA: shPPFIA1_1)?
A: 6.6 DSS

Q: What about the drug sensitivity score ([2]; shRNA: shScramble) of the same molecule?
A: 9.4 DSS

Q: What does the source list for `COC1=CC(c2cc3ccccc3[nH]2)=N/C1=C\c1[nH]c(C)cc1C` [Obatoclax]?
A: drug sensitivity score ([1]; shRNA: shPPFIA1_1): 0 DSS; drug sensitivity score ([1]; shRNA: shScramble): 0 DSS; drug sensitivity score ([2]; shRNA: shPPFIA1_1): 0 DSS; drug sensitivity score ([2]; shRNA: shScramble): 0 DSS

Q: How did the drug sensitivity score ([1]; shRNA: shPPFIA1_1) turn out when `CC/C(=C(\c1ccc(O)cc1)c1ccc(OCCN(C)C)cc1)c1ccccc1` [4-hydroxytamoxifen] was run?
A: 2.2 DSS

Q: What about the drug sensitivity score ([1]; shRNA: shScramble) of the same molecule?
A: 3.3 DSS

Q: What about the drug sensitivity score ([2]; shRNA: shPPFIA1_1) of the same molecule?
A: 2.7 DSS

Q: What about the drug sensitivity score ([2]; shRNA: shScramble) of the same molecule?
A: 4.8 DSS

Q: How did the drug sensitivity score ([1]; shRNA: shPPFIA1_1) turn out when `O=C(Nc1cccc(Nc2ncc(Br)c(NCCc3cnc[nH]3)n2)c1)N1CCCC1` [BX-912] was run?
A: 1.8 DSS

Q: And the drug sensitivity score ([1]; shRNA: shScramble)?
A: 3.1 DSS

Q: And the drug sensitivity score ([2]; shRNA: shPPFIA1_1)?
A: 3.5 DSS

Q: What about the drug sensitivity score ([2]; shRNA: shScramble) of the same molecule?
A: 5.7 DSS

Q: `O=P1(N(CCCl)CCCl)NCCCO1` (centres undefined) [Cyclophosphamide] was tested. Which drug sensitivity score ([1]; shRNA: shPPFIA1_1) did it give?
A: 0 DSS

Q: What about the drug sensitivity score ([1]; shRNA: shScramble) of the same molecule?
A: 0 DSS

Q: And the drug sensitivity score ([2]; shRNA: shPPFIA1_1)?
A: 0 DSS

Q: And the drug sensitivity score ([2]; shRNA: shScramble)?
A: 0 DSS

Q: Which drug sensitivity score ([1]; shRNA: shPPFIA1_1) does the source give for `O=C(Nc1c[nH]nc1-c1nc2ccc(CN3CCOCC3)cc2[nH]1)NC1CC1` [AT9283] here?
A: 0.2 DSS

Q: What about the drug sensitivity score ([1]; shRNA: shScramble) of the same molecule?
A: 0.8 DSS

Q: And the drug sensitivity score ([2]; shRNA: shPPFIA1_1)?
A: 0 DSS

Q: What about the drug sensitivity score ([2]; shRNA: shScramble) of the same molecule?
A: 0.5 DSS

Q: Which results are given for `O=C(CCBr)N1CCN(C(=O)CCBr)CC1` [Pipobroman]?
A: drug sensitivity score ([1]; shRNA: shPPFIA1_1): 0 DSS; drug sensitivity score ([1]; shRNA: shScramble): 0 DSS; drug sensitivity score ([2]; shRNA: shPPFIA1_1): 0 DSS; drug sensitivity score ([2]; shRNA: shScramble): 0 DSS
